Results: US8728516B2, “Stabilized lipid formulation of apoptosis promoter” (AbbVie Inc., priority 2009, dated 2014)
One block for each compound: values may come before it.

How the values were obtained:
[1] = Antioxidant testing, two-week stress test (Example 6); type: physicochemical; conditions: for inhibition of oxidative degradation: ABT-263 free base 100 mg/g in LIT-433 vehicle system, at the concentrations tested
[2] = Sulfoxide formation in various lipid solutions, two-week stress test (Example 4); type: physicochemical; conditions: in Labrafil M 1944 CS and Plurol Oleique CC497; two-week stress test 40°C
[3] = Drug solubility in ternary excipient systems (Example 2); type: physicochemical; conditions: 10% salt, 20% free base by weight
From the text: Solvents evaluated included Labrafil M 1944 CS™, Imwitor 742™ oleic acid, Capmul PG-8™, Capmul PG-12™, Lauroglycol 90™ (propylene glycol monolaurate, available from Gattefosse) and Phosal 53 MCT™. Surfactants evaluated included Tween 80™, Cremophor RH40™, Gelucire 44/14™ (polyoxyethylene glyceryl laurate, available from Gattefosse) and Labrasol™.

[4] = Sulfoxide formation, free base vs bis-HCl salt in lipid solution (Example 3); type: physicochemical; conditions: lipid solutions (PE-91, LOT-343) aged at 40°C for up to 3 weeks
Description: The solvent system in solution A is Phosal 53 MCT™/ethanol, 9:1 v/v; and in solution B is Labrafil M 1944 CS™/oleic acid/polysorbate 80, 30%/40%/30% by weight. (Labrafil M 1944 CS™ of Gattefossé contains polyoxyethylene glyceryl monooleate.) The three-week study was conducted at 40° C. without nitrogen purging of headspace. […] No antioxidant was included, nor was headspace nitrogen purging performed.

[5] = Storage stability of prototype capsules with and without NaMTBS (Example 12); type: physicochemical; conditions: prototype ABT-263 capsules, especially at 40° C. and 75% RH
From the text: The only difference between the two batches is presence or absence of antioxidant (sodium metabisulfite). The liquids having the composition shown in Table 16 were encapsulated in size 0 hard gelatin capsules and the capsules placed in blister packaging for a chemical stability study. Water content shown in Table 17 is as determined by analysis, and is not directly related to amount of water added with NaMTBS and edetate calcium disodium as in Table 16.

[6] = type: physicochemical
From the text: Due to poor lipid solubility of NaMTBS, an alternative way of introducing it to the lipid solution is by adding a concentrated aqueous stock solution of NaMTBS to the lipid solution.

[7] = BHA as antioxidant in ternary lipid systems (Example 7); type: physicochemical
Description: A full report of this study is found in Example 7 herein.
Testing was done in stress conditions at 40° C. without nitrogen purging.

[8] = C8LL (Capmul PG-8/Labrafil M 1944 CS/Labrasol) 40:40:20
[9] = C12LT (Capmul PG-12/Labrafil M 1944 CS/Tween 80) 30:40:30
[10] = C12LT (Capmul PG-12/Labrafil M 1944 CS/Tween 80) 35:40:25
[11] = C12LT (Capmul PG-12/Labrafil M 1944 CS/Tween 80) 40:30:30
[12] = C12LT (Capmul PG-12/Labrafil M 1944 CS/Tween 80) 45:30:25
[13] = LLC (Lauroglycol 90/Labrafil M 1944 CS/Cremophor RH40) 45:30:25
[14] = LLL (Lauroglycol 90/Labrafil M 1944 CS/Labrasol) 40:40:20
[15] = LLL (Lauroglycol 90/Labrafil M 1944 CS/Labrasol) 50:30:20
[16] = LOC (Labrafil M 1944 CS/oleic acid/Cremophor RH40) 30:60:10
[17] = LOC (Labrafil M 1944 CS/oleic acid/Cremophor RH40) 40:50:10
[18] = LOT (Labrafil M 1944 CS/oleic acid/Tween 80) 30:40:30
[19] = LOT (Labrafil M 1944 CS/oleic acid/Tween 80) 30:45:25
[20] = LOT (Labrafil M 1944 CS/oleic acid/Tween 80) 40:30:30
[21] = LOT (Labrafil M 1944 CS/oleic acid/Tween 80) 40:35:25
[22] = OLL (oleic acid/Labrafil M 1944 CS/Labrasol) 40:40:20
[23] = OLL (oleic acid/Labrafil M 1944 CS/Labrasol) 50:30:20
[24] = OLL (oleic acid/Labrafil M 1944 CS/Labrasol) 50:40:10
[25] = OLL (oleic acid/Labrafil M 1944 CS/Labrasol) 60:30:10

Compound: CCCCCCCCCCCCCCCC(=O)OC[C@H](O)[C@H]1OC(=O)C(O)=C1O [ascorbyl palmitate]
inhibition of oxidative degradation [1]: inhibited oxidative degradation to some extent

Compound: Cc1cc(C(C)(C)C)c(O)c(C(C)(C)C)c1 [BHT, butylated hydroxytoluene]
inhibition of oxidative degradation [1]: inhibited oxidative degradation to some extent

Compound: OCC(O)CS (centres unmarked) [Thioglycerol, thioglycerol]
inhibition of drug oxidation ([1]; ABT-263 free base 100 mg/g, both vehicle systems (Lipoid S75 MCT, LIT-433)): effective inhibition

degradation [2]: significant degradation
ABT-263 solubility [3, 8]: ✓
ABT-263 solubility [3, 9]: ✓
ABT-263 solubility [3, 10]: ✓
ABT-263 solubility [3, 11]: ✓
ABT-263 solubility [3, 12]: ✓
ABT-263 solubility [3, 13]: ✓
ABT-263 solubility [3, 14]: ✓
ABT-263 solubility [3, 15]: ✓
ABT-263 solubility [3, 16]: ✓
ABT-263 solubility [3, 17]: ✓
ABT-263 solubility [3, 18]: ✓
ABT-263 solubility [3, 19]: ✓
ABT-263 solubility [3, 20]: ✓
ABT-263 solubility [3, 21]: ✓
ABT-263 solubility [3, 22]: ✓
ABT-263 solubility [3, 23]: ✓
ABT-263 solubility [3, 24]: ✓
ABT-263 solubility [3, 25]: ✓
Compound: CC1(C)CCC(c2ccc(Cl)cc2)=C(CN2CCN(c3ccc(C(=O)NS(=O)(=O)c4ccc(N[C@H](CCN5CCOCC5)CSc5ccccc5)c(S(=O)(=O)C(F)(F)F)c4)cc3)CC2)C1 [ABT-263]

ABT-263 solubility [3, 8]: ✓
ABT-263 solubility [3, 9]: ✓
ABT-263 solubility [3, 10]: ✓
ABT-263 solubility [3, 11]: ✓
ABT-263 solubility [3, 12]: ✓
ABT-263 solubility ([3]; ILC (Imwitor 742/Labrafil M 1944 CS/Cremophor RH40) 40:40:20): ✓
ABT-263 solubility ([3]; ILC (Imwitor 742/Labrafil M 1944 CS/Cremophor RH40) 50:30:20): ✓
ABT-263 solubility ([3]; ILC (Imwitor 742/Labrafil M 1944 CS/Cremophor RH40) 50:40:10): ✓
ABT-263 solubility ([3]; ILC (Imwitor 742/Labrafil M 1944 CS/Cremophor RH40) 60:30:10): ✓
ABT-263 solubility ([3]; ILL (Imwitor 742/Labrafil M 1944 CS/Labrasol) 40:40:20): ✓
ABT-263 solubility ([3]; ILL (Imwitor 742/Labrafil M 1944 CS/Labrasol) 50:30:20): ✓
ABT-263 solubility ([3]; ILL (Imwitor 742/Labrafil M 1944 CS/Labrasol) 50:40:10): ✓
ABT-263 solubility ([3]; ILL (Imwitor 742/Labrafil M 1944 CS/Labrasol) 60:30:10): ✓
ABT-263 solubility ([3]; LIT (Labrafil M 1944 CS/Imwitor 742/Tween 80) 30:40:30): ✓
ABT-263 solubility ([3]; LIT (Labrafil M 1944 CS/Imwitor 742/Tween 80) 30:45:25): ✓
ABT-263 solubility ([3]; LIT (Labrafil M 1944 CS/Imwitor 742/Tween 80) 40:30:30): ✓
ABT-263 solubility ([3]; LIT (Labrafil M 1944 CS/Imwitor 742/Tween 80) 40:35:25): ✓
ABT-263 solubility [3, 13]: ✓
ABT-263 solubility [3, 14]: ✓
ABT-263 solubility [3, 15]: ✓
ABT-263 solubility ([3]; LLL (Lauroglycol 90/Labrafil M 1944 CS/Labrasol) 50:40:10): ✓
ABT-263 solubility ([3]; LLL (Lauroglycol 90/Labrafil M 1944 CS/Labrasol) 60:30:10): ✓
ABT-263 solubility [3, 16]: ✓
ABT-263 solubility [3, 17]: ✓
ABT-263 solubility [3, 18]: ✓
ABT-263 solubility [3, 19]: ✓
ABT-263 solubility [3, 20]: ✓
ABT-263 solubility [3, 21]: ✓
ABT-263 solubility [3, 22]: ✓
ABT-263 solubility [3, 23]: ✓
ABT-263 solubility [3, 24]: ✓
ABT-263 solubility [3, 25]: ✓
color change upon aging [4]: pronounced color darkening
Compound: CC1(C)CCC(c2ccc(Cl)cc2)=C(CN2CCN(c3ccc(C(=O)NS(=O)(=O)c4ccc(N[C@H](CCN5CCOCC5)CSc5ccccc5)c(S(=O)(=O)C(F)(F)F)c4)cc3)CC2)C1.Cl.Cl [ABT-263 bis-HCl salt]

inhibition of oxidative degradation [1]: ineffective
Compound: α-tocopherols

Compound: O=S([O-])([O-])=S.[Na+].[Na+] [sodium thiosulfate]
inhibition of oxidative degradation [1]: inhibited oxidative degradation to some extent

final NaMTBS concentration giving a clear solution [6]: ≤ 9.67 mg/mL
final NaMTBS concentration at which the lipid solution turned turbid ([6]; 50 mg/ml free base solution in Phosal 53 MCT/ethanol 9:1 v/v, 15% w/v stock solution): ≥ 150 % relative molar concentration
solubility of neat NaMTBS (solids remained) ([6]; 5 days): < 0.05 % w/w
Compound: O=S([O-])S(=O)(=O)[O-].[Na+].[Na+] [sodium metabisulfite]
inhibition of oxidative degradation [1]: inhibited oxidative degradation to some extent
inhibition of formation of total sulfoxides [5]: significantly inhibited

Compound: COc1ccc(O)c(C(C)(C)C)c1 [BHA, butylated hydroxyanisole]
inhibition of oxidative degradation [1]: inhibited oxidative degradation to some extent
effect on sulfoxide formation ([7]; 0.2% by weight BHA in 15% by weight ABT-263 free base in IPT-253, 4-week study at 40°C without nitrogen purging): no effect
inhibition of sulfoxide formation ([7]; 0.2% w/w BHA, ABT-263 150 mg/g in IPT-253 and LIT-433, 40°C without nitrogen purging): did not provide any inhibition
